Common to all, as to type: cell-based
One assay has as its system GluR1. The assay is described as follows: Immunocytochemical staining of surface and internalized GluR1 in cultured hippocampal neurons. The protocol: Immunocytochemical staining. Immunocytochemical staining of heterologous cells was performed as described (Xu et al., supra). For PMA-stimulation experiments, PMA (Sigma Cat #: P8139) at (150 nM) was added 90 minutes prior to live staining. Images were viewed and captured using Nikon E800 epifluorescence microscope fitted with a Princeton Instruments CCD camera. For live staining, neurons cultured on coverslips were incubated at 10° C. with the appropriate primary antibodies at the indicated dilutions in conditioned culture medium for 20 min. They were then washed with PBS and fixed with 4% paraformaldehyde/4% sucrose in PBS for 20 min at room temperature. Cells were permeablized with 0.2% Triton X-100 in PBS for 5 min and then blocked in 10% normal goat serum in PBS for 1 hr at room temperature. If intracellular proteins were of interest, coverslips were then incubated with antibody diluted in 10% normal goat serum for 1 hr at room temperature or overnight at 4° C. Coverslips were washed with PBS and incubated with secondary antibody conjugated to Alexa488 and Alexa555 (1:500 in 10% normal goat serum, Molecular Probes Eugene, Oreg.). Coverslips were mounted using the Prolong Antifade Kit (Molecular Probes, Eugene, Oreg.). For immunocytochemistry studies, mGluR1/5 were activated using the selective agonist (S)-DHPG (Tocris Cat.# 0805) with mGluR5 allosteric potentiator DFB (Tocris Cat.#1625). Neurons were incubated with DFB (50 μM) for 5 min and then DHPG (50 μM) for an additional 5 min in neuronal incubation medium and then transferred into the original incubation medium. […] Cells were incubated at 37° C. to allow endocytosis. At indicated time points, cells were incubated with N-terminal GluR1 mouse antibody (JH 4093; 0.2 μg/100 μl; kind gift from T. […] (to block endocytosis during staining). Cells were then processed for immunofluorescent staining as described above. An acid strip protocol was employed to measure endocytosed antibody labeled GluR1 (Snyder et al., 2001). Neurons were washed with progressively cooler NIM to slow basal endocytosis. Cells were then live labeled at 10° C. with GluR1 N-terminal antibody (0.2 μg/100 μL JH4094) antibody in NIM for 20 min. After washing unbound excess antibody, cells were incubated sequentially with DFB, DHPG, and original incubation medium at 37° C., as described above. After appropriate incubation times, cells were washed with 4° C. TBS. […] Neurons were then washed with 4° C. TBS followed by processing for immunofluorescent staining as described above. All neurons were viewed and captured using UltraVIEW spinning disk confocal microscope (PerkinElmer Life Sciences, Wellesley, Mass., USA) with a Nikon Eclipse TE 200 microscope and a 63× objective (Nikon, Melville, N.Y.). Images were acquired and saved as Tiff files with a dynamic range of 65536 grey levels (16-bit binary). Image analysis was performed using Metamorph imaging software (Universal Imaging, Downingtown, Pa.). For quantification of the punctate structures (e.g. GluR1), images were thresholded by grey value to differentiate single puncta. Segments of dendrites were selected and number of puncta was calculated per […] of length dendrite. Figures show ratios of calculated mean densities (number of puncta per unit length) from treated/control. Error bars were calculated using SEM and Gaussian error propagation. n=number of measured dendrites. Significance was determined by paired Student's T-test.

Assay [1] concerns LFC-NPR (TACE cleavage of NPR). Briefly: Western blot of LFC-NPR in lysates of cultured cortical neurons after DHPG. The protocol: Cell Culture, Transfection, Western Blot Analysis, and Co-immunoprecipitation analysis. HEK293T and […] (ATCC, Manassas, Va.) cell maintenance and transfection methods have been described previously (Xu et al., supra). Preparation and transfection of cultured hippocampal neurons were described previously (Rumbaugh et al., J Neurosci 23:4567-76, 2003). Western blot analysis of homogenates of HEK293T cells, cultured neurons, and brain extracts was performed as described previously (Xu et al., supra). Co-IP analysis to measure interaction between NPR and AMPAR was performed as described (Xu et al., supra).
Ab LFC-NPR was used to examine the possibility that mGluR1/5 might regulate cleavage of NPR. mGluR1/5 activates PKC via phospholipase C and the production of diacylglycerol (DAG) and inositol triphosphate (IP3) that releases intracellular Ca^2+. […] Ab LFC-NPR detected a ˜60 kDa band from lysates that increased in intensity (expressed as a percent control) over time after stimulation with DHPG. No specific band was detected in the medium by Ab LFC-NPR or other NPR Abs. Absence of LFC-NPR in the medium of neurons was consistent with the observation that both Narp and NP1 were absent from medium even though they are secreted proteins detected on the cell surface using live labeling methods. […]

Assay [2] concerns surface GluR1 / surface LFC-NPR. Briefly: Cell surface biotinylation of cultured cortical neurons. The conditions noted are these: for surface LFC-NPR: cultured cortical neurons after DHPG treatment. The protocol:
Cell Surface Biotinylation. Surface biotinylation of GluR1 at the plasma membrane was described previously (Snyder et al., Nat Neurosci 4:1079-85, 2001) with some modifications. Cultured cortical neurons were treated with DHPG for 5 minutes. Medium was then replaced with previously cultured medium. After 45 minutes, neurons were cooled on ice and washed with cold PBS containing 1 mM CaCl2 and 0.5 mM MgCl2 (PBS++). Cell surface proteins were labeled with cell-impermeable EZ-Link Sulfo-NHS-SS-Biotin (sulfosuccinimidyl-2-(biotinamido)ethyl-1,3-dithiopropionate; Pierce) in PBS^++ (1 mg/mL) at 4° C. for 30 min. Unreacted biotin was quenched by washing cells with cold 100 mM Glycine (pH 7.4). Cultures were lysed using RIPA buffer and homogenates were centrifuged at 13, 200 rpm to remove debris. 10% of the homogenates were used for total protein. 90% of the remaining homogenates were incubated with immobilized NeutrAvidin beads (Pierce). After washing with RIPA buffer, bound proteins were eluted with 2× Laemmli sample buffer supplemented with 2% β-ME. The eluted proteins were subjected to SDS-PAGE and Western blotting followed by ECL (Amersham Biosciences) and exposure to autoradiography film. Primary antibody concentrations were as follows: GluR1N at 0.12 μg/mL and β-actin at 1:1000. Quantification performed on digital images scanned from exposure matched autoradiographs. Densitometric analysis of these digital images was performed using ImageJ software (Version 1.33, National Institutes of Health). Significance was determined by paired Student's T-test.

Setting [3] is: cultured hippocampal neurons DIV 14-17, 45 min after DHPG, TAPI-2 = pretreatment (50 μM) before DHPG.
Setting [4] is: TAPI-2 = pretreatment before DHPG.
Setting [5] is: cultured cortical neurons, 45 min after DHPG treatment, TAPI-2 = pretreatment before DHPG.
Where [6] appears, read: neurons derived from control mice.

SMILES strings stand for the structures.

For `CC(C)C[C@H](CC(=O)NO)C(=O)N[C@H](C(=O)N[C@@H](C)C(=O)NCCN)C(C)(C)C` [TAPI-2], the “surface GluR1 puncta density” value in the assay with GluR1 (setting [3]) was 84.7±12.6 % of vehicle control. Further, in assay [1] (pretreatment of cultured neurons with TAPI-2), the “DHPG-stimulated increase in LFC-NPR” value is listed as “blocked”. Further, the “surface LFC-NPR” value in assay [2] (setting [4]) is reported as 108.9±16.0 % of vehicle control. Further, the “surface GluR1” value in assay [2] (setting [5]) is 102.4±4.9 % of vehicle control.
Turning to `N[C@H](C(=O)O)c1cc(O)cc(O)c1` [DHPG, (S)-3,5-dihydroxyphenylglycine], the “surface GluR1 puncta density” value is 113.4±6.3 % of vehicle control in the assay on GluR1 (DHPG treated neurons cultured from NP TKO mice), 68.5±6.0 % of vehicle control in the assay on GluR1 (DHPG treated neurons derived from control mice) and 47.6±8.5 % of vehicle control in the assay with GluR1 (setting [3]). The “internalized GluR1 (acid-strip protocol)” value in the assay with GluR1 (setting [6]) is on record as “evoked an increase in internalized GluR1”. For the same compound, in the assay on GluR1 (setting [6]), the “time to maximal internalized GluR1 after addition of DHPG” value is listed as ≤ 5 min. In addition, in the assay with GluR1 (neurons from NP TKO mice), the “GluR1 internalization (acid-strip protocol)” value was “did not increase GluR1 internalization”. Besides, the “increase of LFC-NPR levels in lysates” value in assay [1] (90 minutes after stimulation with 50 μM DHPG for 5 minutes, cultured cortical neurons ~DIV 14) is recorded as 60.7%±2.5%. Also, the “surface LFC-NPR” value in assay [2] (setting [4]) is 84.3±7.2 % of vehicle control. The “surface GluR1” value in assay [2] (setting [5]) was 74.1±2.2 % of vehicle control; in assay [2] (neurons cultured from NP TKO mouse cortex, after DHPG), 98.4±9.7 % of vehicle control; in assay [2] (neurons cultured from control mouse cortex, 45 min after DHPG), 46.3±8.3 % of vehicle control.

Source of the values: patent US20090123940A1, “MOLECULES INVOLVED IN SYNAPTOGENESIS AND USES THEREFOR” (THE JOHNS HOPKINS UNIVERSITY, priority 2007, published 2009).
